Measured values published in US4729991A, “Cephem compounds” (Fujisawa Pharmaceutical Co., Ltd., priority 1978, dated 1988).
Values after ≈ are worked out from the molar mass of the structure shown.

Key:
Assay in all cases: In vitro antibacterial activity, two-fold agar-plate dilution method
Type in all cases: cell-based
[1] = test system: Escherichia coli NIHJ JC-2; conditions: NIHJJC2, HI-agar, 37° C., 20 hours
Procedure: (§1) (1) Test method In vitro antibacterial activity was determined by the two-fold agar-plate dilution method as described below. One loopful of an overnight culture of each test strain in Trypticase-soy broth was streaked on heart infusion agar (HI-agar) containing graded concentrations of the test compound and incubated at 37° C. for 20 hours. The minimal inhibitory concentration (MIC) was expressed in μg/ml.

Klebsiella pneumoniae 20 = conditions: HI-agar, 37° C., 20 hours
Procedure: as §1

Proteus mirabilis 18 = conditions: HI-agar, 37° C., 20 hours
Procedure: as §1

[2] = test system: Proteus vulgaris IAM-1025; conditions: IAM1025, HI-agar, 37° C., 20 hours
Procedure: as §1

[3] = test system: Pseudomonus aeruginosa NCTC-10490; conditions: HI-agar, 37° C., 20 hours
Procedure: as §1

[4] = test system: Staphylococcus aureus 209P JC-1; conditions: HI-agar, 37° C., 20 hours
Procedure: as §1

Row | SMILES | MIC [1] [µg/mL] | MIC (Klebsiella pneumoniae 20) [µg/mL] | MIC (Proteus mirabilis 18) [µg/mL] | MIC [2] [µg/mL] | MIC [3] [µg/mL] | MIC [4] [µg/mL]
1 | CO/N=C(\C(=O)NC1C(=O)N2C(C(=O)O)=C(CSc3nncs3)CSC12)c1nc(N)sc1Br (stereo not drawn) [compound 1, 7-[2-(2-amino-5-bromothiazol-4-yl)-2-methoxyiminoacetamido]-3-(1,3,4-thiadiazol-2-ylthiomethyl)-3-cephem-4-carboxylic acid (syn isomer)] | 0.78 (≈ 1.32 µM) | 0.78 (≈ 1.32 µM) | 0.78 (≈ 1.32 µM) | 6.25 (≈ 10.5 µM) | 3.13 (≈ 5.28 µM) | 1.56 (≈ 2.63 µM)
2 | CO/N=C(\C(=O)NC1C(=O)N2C(C(=O)O)=C(CSc3nnc(C)s3)CSC12)c1nc(N)sc1Br (stereo not drawn) [compound 2, 7-[2-(2-amino-5-bromothiazol-4-yl)-2-methoxyiminoacetamide]-3-(5-methyl-1,3,4-thiadiazol-2-ylthiomethyl)-3-cephem-4-carboxylic acid (syn isomer)] | 1.56 (≈ 2.57 µM) | 3.13 (≈ 5.16 µM) | 6.25 (≈ 10.3 µM) | 12.5 (≈ 20.6 µM) | 6.25 (≈ 10.3 µM) | 3.13 (≈ 5.16 µM)
3 | CO/N=C(\C(=O)NC1C(=O)N2C(C(=O)O)=C(CSc3nnnn3C)CSC12)c1nc(N)sc1Br (stereo not drawn) [compound 3, 7-[2-(2-amino-5-bromothiazol-4-yl)-2-methoxyiminoacetamido]-3-(1-methyl-1H-tetrazol-5-ylthiomethyl)-3-cephem-4-carboxylic acid (syn isomer)] | 1.56 (≈ 2.64 µM) | 0.39 (≈ 0.66 µM) | 3.13 (≈ 5.3 µM) | 12.5 (≈ 21.2 µM) | 3.13 (≈ 5.3 µM) | 3.13 (≈ 5.3 µM)
4 | CO/N=C(\C(=O)NC1C(=O)N2C(C(=O)O)=C(COC(=O)c3ccccc3)CSC12)c1nc(N)sc1Br (stereo not drawn) [compound 4, 7-[2-(2-amino-5-bromothiazol-4-yl)-2-methoxyiminoacetamido]-3-benzoyloxymethyl-3-cephem-4-carboxylic acid (syn isomer)] | 6.25 (≈ 10.5 µM) | 1.56 (≈ 2.62 µM) | 3.13 (≈ 5.25 µM) | 12.5 (≈ 21 µM) | 6.25 (≈ 10.5 µM) | 1.56 (≈ 2.62 µM)
5 | CO/N=C(\C(=O)NC1C(=O)N2C(C(=O)O)=C(CSc3nncs3)CSC12)c1nc(N)sc1Cl (stereo not drawn) [compound 5, 7-[2-(2-amino-5-chlorothiazol-4-yl)-2-methoxyiminoacetamido]-3-(1,3,4-thiadiazol-2-ylthiomethyl)-3-cephem-4-carboxylic acid (syn isomer)] | 1.56 (≈ 2.85 µM) | 0.39 (≈ 0.712 µM) | 0.78 (≈ 1.42 µM) | 1.56 (≈ 2.85 µM) | 1.56 (≈ 2.85 µM) | 3.13 (≈ 5.71 µM)
